Experimental data: PubChem BioAssay (NCI)
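A five-concentration, 48-hour dose response in 96-well plates underlies each endpoint, interpolated linearly between surrounding concentrations. GI50 marks 50% less growth. TGI marks complete inhibition of growth.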

Legend:
Test in all cases: NCI-60 cell line screen, 48 h
[1] = system: 786-0 renal
[2] = system: A498 renal
[3] = system: A549 NSCLC
[4] = system: ACHN renal
[5] = system: BT-549 breast
[6] = system: CAKI-1 renal
[7] = system: CCRF-CEM leukemia
[8] = system: COLO 205 colon
[9] = system: DU-145 prostate
[10] = system: EKVX NSCLC
[11] = system: HCC-2998 colon
[12] = system: HCT-116 colon
[13] = system: HCT-15 colon
[14] = system: HL-60(TB) leukemia
[15] = system: HOP-62 NSCLC
[16] = system: HOP-92 NSCLC
[17] = system: HS 578T breast
[18] = system: HT29 colon
[19] = system: IGROV1 ovarian
[20] = system: K-562 leukemia
[21] = system: KM12 colon
[22] = system: LOX IMVI melanoma
[23] = system: MALME-3M melanoma
[24] = system: MCF7 breast
[25] = system: MDA-MB-231 breast
[26] = system: MDA-MB-435
[27] = system: MOLT-4 leukemia
[28] = system: NCI-H226 lung
[29] = system: NCI-H23 lung
[30] = system: NCI-H460 lung
[31] = system: NCI-H522 lung
[32] = system: NCI/ADR-RES ovarian
[33] = system: OVCAR-3 ovarian
[34] = system: OVCAR-4 ovarian
[35] = system: OVCAR-5 ovarian
[36] = system: OVCAR-8 ovarian
[37] = system: PC-3 prostate
[38] = system: RPMI-8226 leukemia
[39] = system: RXF 393 renal
[40] = system: SF-268 CNS
[41] = system: SF-295 CNS
[42] = system: SF-539 CNS
[43] = system: SK-MEL-2 melanoma
[44] = system: SK-MEL-28 melanoma
[45] = system: SK-MEL-5 melanoma
[46] = system: SK-OV-3 ovarian
[47] = system: SN12C renal
[48] = system: SNB-19 CNS
[49] = system: SNB-75 CNS
[50] = system: SR leukemia
[51] = system: SW-620 colon
[52] = system: T-47D breast
[53] = system: TK-10 renal
[54] = system: U251 CNS
[55] = system: UACC-257 melanoma
[56] = system: UACC-62 melanoma
[57] = system: UO-31 renal

Question: Which GI50 [1] does the source give for `CC1=C2C(=C[C@@](C)(COC(=O)c3ccc(S(=O)(=O)F)cc3)[C@@H]2O)C(=O)[C@](C)(O)C12CC2` here?
Answer: The GI50 was 2150 nM.

Question: What about the TGI [1] of the same compound?
Answer: Its TGI is 7930 nM.

Question: And the GI50 [2]?
Answer: Its GI50 is 2270 nM.

Question: And the TGI [2]?
Answer: Its TGI is 5620 nM.

Question: And the GI50 [3]?
Answer: Its GI50 is 2870 nM.

Question: And the TGI [3]?
Answer: Its TGI is > 26100 nM.

Question: And the GI50 [4]?
Answer: Its GI50 is 541 nM.

Question: What about the TGI [4] of the same compound?
Answer: The TGI was 1730 nM.

Question: And the GI50 [5]?
Answer: Its GI50 is 1220 nM.

Question: What about the TGI [5] of the same compound?
Answer: The TGI was 2840 nM.

Question: What about the GI50 [6] of the same compound?
Answer: Its GI50 is 631 nM.

Question: And the TGI [6]?
Answer: The TGI was 2450 nM.

Question: And the GI50 [7]?
Answer: The GI50 was 3210 nM.

Question: And the TGI [7]?
Answer: The TGI was > 28000 nM.

Question: What about the GI50 [8] of the same compound?
Answer: The GI50 was 951 nM.

Question: And the TGI [8]?
Answer: Its TGI is 2720 nM.

Question: And the GI50 [9]?
Answer: The GI50 was 522 nM.

Question: What about the TGI [9] of the same compound?
Answer: Its TGI is 3040 nM.

Question: And the GI50 [10]?
Answer: The GI50 was 2420 nM.

Question: What about the TGI [10] of the same compound?
Answer: Its TGI is 6470 nM.

Question: What about the GI50 [11] of the same compound?
Answer: The GI50 was 945 nM.

Question: What about the TGI [11] of the same compound?
Answer: Its TGI is 2710 nM.

Question: And the GI50 [12]?
Answer: Its GI50 is 587 nM.

Question: And the TGI [12]?
Answer: The TGI was 2500 nM.

Question: And the GI50 [13]?
Answer: Its GI50 is 424 nM.

Question: What about the TGI [13] of the same compound?
Answer: The TGI was 2240 nM.

Question: What about the GI50 [14] of the same compound?
Answer: Its GI50 is 566 nM.

Question: And the TGI [14]?
Answer: Its TGI is 5910 nM.

Question: And the GI50 [15]?
Answer: The GI50 was 2550 nM.

Question: What about the TGI [15] of the same compound?
Answer: Its TGI is 13800 nM.

Question: And the GI50 [16]?
Answer: The GI50 was 2170 nM.

Question: And the TGI [16]?
Answer: The TGI was 6010 nM.

Question: What about the GI50 [17] of the same compound?
Answer: Its GI50 is 2420 nM.

Question: And the TGI [17]?
Answer: Its TGI is 9570 nM.

Question: What about the GI50 [18] of the same compound?
Answer: Its GI50 is 498 nM.

Question: What about the TGI [18] of the same compound?
Answer: The TGI was 2670 nM.

Question: And the GI50 [19]?
Answer: Its GI50 is 941 nM.

Question: What about the TGI [19] of the same compound?
Answer: The TGI was 5060 nM.

Question: What about the GI50 [20] of the same compound?
Answer: The GI50 was 3410 nM.

Question: And the TGI [20]?
Answer: The TGI was > 100000 nM.

Question: And the GI50 [21]?
Answer: The GI50 was 4280 nM.

Question: What about the TGI [21] of the same compound?
Answer: The TGI was 24900 nM.

Question: And the GI50 [22]?
Answer: Its GI50 is 588 nM.

Question: And the TGI [22]?
Answer: Its TGI is 2220 nM.

Question: And the GI50 [23]?
Answer: Its GI50 is 785 nM.

Question: What about the TGI [23] of the same compound?
Answer: The TGI was 2330 nM.

Question: And the GI50 [24]?
Answer: Its GI50 is 596 nM.

Question: What about the TGI [24] of the same compound?
Answer: The TGI was 9310 nM.

Question: What about the GI50 [25] of the same compound?
Answer: Its GI50 is 1350 nM.

Question: And the TGI [25]?
Answer: Its TGI is 6620 nM.

Question: What about the GI50 [26] of the same compound?
Answer: Its GI50 is 1170 nM.

Question: And the TGI [26]?
Answer: Its TGI is 2980 nM.

Question: What about the GI50 [27] of the same compound?
Answer: Its GI50 is 2020 nM.

Question: And the TGI [27]?
Answer: The TGI was > 25800 nM.

Question: What about the GI50 [28] of the same compound?
Answer: Its GI50 is 2300 nM.

Question: And the TGI [28]?
Answer: The TGI was 9140 nM.

Question: What about the GI50 [29] of the same compound?
Answer: The GI50 was 1000 nM.

Question: What about the TGI [29] of the same compound?
Answer: The TGI was 3620 nM.

Question: And the GI50 [30]?
Answer: The GI50 was 614 nM.

Question: What about the TGI [30] of the same compound?
Answer: The TGI was 1870 nM.

Question: What about the GI50 [31] of the same compound?
Answer: The GI50 was 745 nM.

Question: What about the TGI [31] of the same compound?
Answer: Its TGI is 2530 nM.

Question: What about the GI50 [32] of the same compound?
Answer: The GI50 was 815 nM.

Question: What about the TGI [32] of the same compound?
Answer: The TGI was 3970 nM.

Question: What about the GI50 [33] of the same compound?
Answer: The GI50 was 906 nM.

Question: What about the TGI [33] of the same compound?
Answer: Its TGI is 3800 nM.

Question: What about the GI50 [34] of the same compound?
Answer: Its GI50 is 1690 nM.

Question: What about the TGI [34] of the same compound?
Answer: The TGI was 4390 nM.

Question: What about the GI50 [35] of the same compound?
Answer: Its GI50 is 982 nM.

Question: And the TGI [35]?
Answer: Its TGI is 5120 nM.

Question: What about the GI50 [36] of the same compound?
Answer: Its GI50 is 903 nM.

Question: What about the TGI [36] of the same compound?
Answer: Its TGI is 3620 nM.

Question: And the GI50 [37]?
Answer: Its GI50 is 1710 nM.

Question: What about the TGI [37] of the same compound?
Answer: Its TGI is > 29100 nM.

Question: And the GI50 [38]?
Answer: Its GI50 is 24500 nM.

Question: What about the TGI [38] of the same compound?
Answer: The TGI was > 74200 nM.

Question: What about the GI50 [39] of the same compound?
Answer: The GI50 was 522 nM.

Question: And the TGI [39]?
Answer: Its TGI is 1230 nM.

Question: What about the GI50 [40] of the same compound?
Answer: Its GI50 is 1060 nM.

Question: And the TGI [40]?
Answer: Its TGI is 6130 nM.

Question: What about the GI50 [41] of the same compound?
Answer: The GI50 was 2140 nM.

Question: And the TGI [41]?
Answer: The TGI was 8200 nM.

Question: What about the GI50 [42] of the same compound?
Answer: Its GI50 is 1860 nM.

Question: What about the TGI [42] of the same compound?
Answer: The TGI was 3710 nM.

Question: And the GI50 [43]?
Answer: Its GI50 is 613 nM.

Question: And the TGI [43]?
Answer: Its TGI is 1290 nM.

Question: And the GI50 [44]?
Answer: Its GI50 is 556 nM.

Question: And the TGI [44]?
Answer: The TGI was 2050 nM.

Question: And the GI50 [45]?
Answer: The GI50 was 1490 nM.

Question: What about the TGI [45] of the same compound?
Answer: Its TGI is 3510 nM.

Question: And the GI50 [46]?
Answer: The GI50 was 2520 nM.

Question: What about the TGI [46] of the same compound?
Answer: Its TGI is 7890 nM.

Question: And the GI50 [47]?
Answer: The GI50 was 1200 nM.

Question: What about the TGI [47] of the same compound?
Answer: The TGI was 5460 nM.

Question: What about the GI50 [48] of the same compound?
Answer: Its GI50 is 1820 nM.

Question: What about the TGI [48] of the same compound?
Answer: Its TGI is 10400 nM.

Question: What about the GI50 [49] of the same compound?
Answer: The GI50 was 1490 nM.

Question: What about the TGI [49] of the same compound?
Answer: The TGI was 3070 nM.

Question: What about the GI50 [50] of the same compound?
Answer: The GI50 was 1360 nM.

Question: And the TGI [50]?
Answer: Its TGI is > 22600 nM.

Question: What about the GI50 [51] of the same compound?
Answer: The GI50 was 1970 nM.

Question: What about the TGI [51] of the same compound?
Answer: The TGI was 8790 nM.

Question: What about the GI50 [52] of the same compound?
Answer: The GI50 was 2060 nM.

Question: What about the TGI [52] of the same compound?
Answer: Its TGI is 18800 nM.

Question: What about the GI50 [53] of the same compound?
Answer: The GI50 was 2510 nM.

Question: What about the TGI [53] of the same compound?
Answer: The TGI was 6470 nM.

Question: And the GI50 [54]?
Answer: Its GI50 is 1400 nM.

Question: What about the TGI [54] of the same compound?
Answer: The TGI was > 25100 nM.

Question: What about the GI50 [55] of the same compound?
Answer: The GI50 was 2050 nM.

Question: What about the TGI [55] of the same compound?
Answer: Its TGI is 4780 nM.

Question: And the GI50 [56]?
Answer: Its GI50 is 894 nM.

Question: What about the TGI [56] of the same compound?
Answer: The TGI was 2560 nM.

Question: What about the GI50 [57] of the same compound?
Answer: The GI50 was 1610 nM.

Question: And the TGI [57]?
Answer: The TGI was 3090 nM.
